Laboratory results reported in US20240041042A1, “1-(PYRIDYL)-5-AZINYLPYRAZOLE DERIVATIVES, AND THEIR USE FOR CONTROL OF UNDESIRED PLANT GROWTH” (Bayer Aktiengesellschaft, priority 2020, published 2024).
Read-outs that look alike come from different tables or passages of the source.

Tests used:
Assay type in all cases: in vivo
[1] = system: Viola tricolor (VIOTR); assay: Post-emergence herbicidal action against VIOTR; conditions: 320 g/ha
How it was run: (§1)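 Greenhouse plants sprayed at the one-leaf stage, 2–3 weeks after sowing, with WP or EC formulations plus 0.5% additive at 600 l/ha water. Activity rated visually after about 3 weeks versus untreated controls (100% = dead, 0% = like control), at 320 g/ha or lower.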

[2] = system: Setaria viridis (SETVI); assay: Pre-emergence herbicidal action against SETVI
How it was run: (§2)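 Greenhouse pot trial: seeds sown, soil-covered, sprayed before emergence with compound in water (0.5% additive; 600 l/ha; ≤320 g/ha). Scoring visual, ~3 weeks, 0–100% scale vs untreated.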

[3] = system: Matricaria inodora (MATIN); assay: Pre-emergence herbicidal action against MATIN; conditions: dosage 320 g/ha
How it was run: as §2

[4] = system: Echinochloa crus-galli (ECHCG); assay: Post-emergence herbicidal action against ECHCG
How it was run: as §1

[5] = system: Oryza sativa (ORYSA); conditions: crop plant compatibility
How it was run: (§3)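 Foliar application at the one-leaf stage: WP/EC formulation, 0.5% additive, 600 l/ha water. Greenhouse-grown in sandy loam. Endpoint is visual % injury relative to untreated controls at about 3 weeks.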

[6] = system: Zea mays (ZEAMX); conditions: crop plant compatibility, 80 g/ha, effect vs untreated controls
How it was run: as §3

[7] = system: Viola tricolor (VIOTR); assay: Pre-emergence herbicidal action against VIOTR
How it was run: as §2

[8] = system: Echinochloa crus-galli (ECHCG); assay: Pre-emergence herbicidal action against ECHCG
How it was run: as §2

[9] = system: Pharbitis purpurea (PHBPU); assay: Post-emergence herbicidal action against PHBPU
How it was run: as §1

[10] = system: Pharbitis purpurea (PHBPU); assay: Pre-emergence herbicidal action against PHBPU; conditions: dosage 320 g/ha
How it was run: as §2

[11] = system: Verconica persica (VERPE); assay: Pre-emergence herbicidal action against VERPE
How it was run: as §2

[12] = system: Alopecurus myosuroides (ALOMY); assay: Pre-emergence herbicidal action against ALOMY; conditions: scored visually after about 3 weeks, 100% = plants have died
How it was run: as §2

[13] = system: Polygonum convolvulus (POLCO); assay: Pre-emergence herbicidal action against POLCO
How it was run: as §2

[14] = system: Amaranthus retroflexus (AMARE); assay: Post-emergence herbicidal action against AMARE
How it was run: as §1

[15] = system: Abutilon theophrasti (ABUTH); assay: Pre-emergence herbicidal action against ABUTH; conditions: 100% = plants have died
Source text: Seeds of monocotyledonous and dicotyledonous weed plants and crop plants are placed in plastic or organic planting pots and covered with soil. The compounds of the invention, formulated in the form of wettable powders (WP) or as emulsion concentrates (EC), are then applied to the surface of the covering soil as aqueous suspension or emulsion with addition of 0.5% additive at a water application rate equivalent to 600 l/ha. After the treatment, the pots are placed in a greenhouse and kept under good growth conditions for the trial plants. After about 3 weeks, the effect of the preparations is scored visually in comparison with untreated controls as percentages. For example, 100% activity=the plants have died, 0% activity=like control plants.
Tables A1 to A13 below show the effects of selected compounds of the general formula (I) on various harmful plants and at an application rate corresponding to 320 g/ha or lower, which were obtained by the experimental procedure mentioned above. The appendices “a”, “b” and “c” give differentiation by dosage used with otherwise the same harmful plants tested.

[16] = system: Lolium rigidum (LOLRI); assay: Pre-emergence herbicidal action against LOLRI
How it was run: as §2

[17] = system: Lolium rigidum (LOLRI); assay: Post-emergence herbicidal action against LOLRI
How it was run: as §1

[18] = system: Avena fatua (AVEFA); assay: Pre-emergence herbicidal action against AVEFA; conditions: 320 g/ha, visual scoring after about 3 weeks vs untreated controls
How it was run: as §2

[19] = system: Alopecurus myosuroides (ALOMY); assay: Post-emergence herbicidal action against ALOMY; conditions: visual rating about 3 weeks after treatment vs untreated controls (100% = plants have died, 0% = like control plants)
How it was run: as §1

[20] = system: Amaranthus retroflexus (AMARE); assay: Pre-emergence herbicidal action against AMARE; conditions: visual scoring after about 3 weeks vs untreated controls
How it was run: as §2

[21] = system: Avena fatua (AVEFA); assay: Post-emergence herbicidal action against AVEFA; conditions: visual rating about 3 weeks after treatment
How it was run: as §1

[22] = system: Abutilon theophrasti (ABUTH); assay: Post-emergence herbicidal action against ABUTH; conditions: visual rating about 3 weeks after treatment vs untreated controls (100% = plants have died, 0% = like control plants)
How it was run: as §1

[23] = system: Verconica persica (VERPE); assay: Post-emergence herbicidal action against VERPE
How it was run: as §1

[24] = system: Setaria viridis (SETVI); assay: Post-emergence herbicidal action against SETVI
How it was run: as §1

[25] = system: Polygonum convolvulus (POLCO); assay: Post-emergence herbicidal action against POLCO; conditions: dosage 80 g/ha
How it was run: as §1

[26] = 80 g/ha, effect in comparison to untreated controls
[27] = 80 g/ha, visual rating about 3 weeks after treatment vs untreated controls (100% = plants have died, 0% = like control plants)
[28] = 80 g/ha, scored visually after about 3 weeks vs untreated controls, 0% = like control plants
[29] = Dosage column 320 g/ha (title prints 3200 g/ha), scored visually after about 3 weeks

COC(=O)[C@@H](C)Oc1nn(-c2nc(F)ccc2F)c(-c2ccc(F)nc2)c1Cl [Example I-332]
80%: Post-emergence action against VIOTR in % [1] | Post-emergence action against ECHCG in % ([4]; dosage 80 g/ha) | Pre-emergence action against ECHCG in % ([8]; dosage 80 g/ha) | Post-emergence action against PHBPU in % ([9]; dosage 80 g/ha) | Post-emergence action against PHBPU in % ([9]; dosage 320 g/ha) | Pre-emergence action against VERPE in % ([11]; dosage 80 g/ha) | Pre-emergence action against POLCO in % ([13]; dosage 80 g/ha) | Pre-emergence action against POLCO in % ([13]; dosage 320 g/ha) | Post-emergence action against AMARE in % [14, 27] | Post-emergence action against AMARE in % ([14]; 320 g/ha, visual rating about 3 weeks after treatment) | Pre-emergence action against ABUTH [15, 28] | Pre-emergence action against ABUTH [15, 29] | Post-emergence action against LOLRI in % ([17]; dosage 80 g/ha) | Post-emergence action against ALOMY in % ([19]; 80 g/ha) | Pre-emergence action against AMARE in % ([20]; 80 g/ha) | Post-emergence action against AVEFA in % ([21]; 80 g/ha) | Post-emergence action against ABUTH in % ([22]; 80 g/ha) | Post-emergence action against ABUTH in % ([22]; 320 g/ha) | Post-emergence action against VERPE in % ([23]; 320 g/ha, VERPE) | Post-emergence action against SETVI in % ([24]; dosage 320 g/ha)
90%: Pre-emergence action against MATIN in % [3] | Post-emergence action against ECHCG in % ([4]; dosage 320 g/ha) | Pre-emergence action against VIOTR in % ([7]; dosage 80 g/ha) | Pre-emergence action against VERPE in % ([11]; dosage 320 g/ha) | Pre-emergence action against LOLRI in % ([16]; dosage 80 g/ha) | Post-emergence action against LOLRI in % ([17]; dosage 320 g/ha) | Post-emergence action against ALOMY in % ([19]; 320 g/ha) | Post-emergence action against AVEFA in % ([21]; 320 g/ha)
100%: Pre-emergence action against SETVI in % ([2]; dosage 320 g/ha) | Pre-emergence action against VIOTR in % ([7]; 320 g/ha, Viola tricolor) | Pre-emergence action against ECHCG in % ([8]; dosage 320 g/ha) | Pre-emergence action against PHBPU in % [10] | Pre-emergence action against ALOMY ([12]; 320 g/ha) | Pre-emergence action against LOLRI in % ([16]; dosage 320 g/ha) | Pre-emergence action against AVEFA in % [18] | Pre-emergence action against AMARE in % ([20]; 320 g/ha)
10%: Post-emergence action against ZEAMX in % [6]
20%: Post-emergence action against ORYSA in % [5, 26]

COC(=O)CCOC(=O)[C@@H](C)Oc1nn(-c2ccccn2)c(-c2cncc(F)c2)c1Br [Example I-73]
90%: Pre-emergence action against SETVI in % ([2]; dosage 80 g/ha) | Post-emergence action against POLCO in % [25] | Pre-emergence action against MATIN in % [3] | Pre-emergence action against ECHCG in % ([8]; dosage 320 g/ha) | Post-emergence action against PHBPU in % ([9]; dosage 80 g/ha) | Pre-emergence action against PHBPU in % [10] | Pre-emergence action against ALOMY ([12]; 80 g/ha) | Pre-emergence action against POLCO in % ([13]; dosage 320 g/ha) | Post-emergence action against AMARE in % [14, 27] | Pre-emergence action against ABUTH [15, 29]
80%: Post-emergence action against ECHCG in % ([4]; dosage 80 g/ha) | Pre-emergence action against POLCO in % ([13]; dosage 80 g/ha) | Pre-emergence action against ABUTH [15, 28] | Post-emergence action against LOLRI in % ([17]; dosage 80 g/ha) | Pre-emergence action against AVEFA in % [18] | Post-emergence action against AVEFA in % ([21]; 80 g/ha) | Post-emergence action against ABUTH in % ([22]; 80 g/ha) | Post-emergence action against VERPE in % ([23]; dosage 80 g/ha) | Post-emergence action against SETVI in % ([24]; dosage 80 g/ha)
0%: Post-emergence action against ORYSA in % ([5]; 20 g/ha, effect vs untreated controls)
10%: Post-emergence action against ORYSA in % [5, 26]
100%: Pre-emergence action against SETVI in % ([2]; dosage 320 g/ha) | Pre-emergence action against VIOTR in % ([7]; 320 g/ha, Viola tricolor) | Pre-emergence action against VIOTR in % ([7]; dosage 80 g/ha) | Pre-emergence action against VERPE in % ([11]; dosage 320 g/ha) | Pre-emergence action against ALOMY ([12]; 320 g/ha) | Pre-emergence action against LOLRI in % ([16]; dosage 80 g/ha) | Pre-emergence action against LOLRI in % ([16]; dosage 320 g/ha) | Post-emergence action against ALOMY in % ([19]; 80 g/ha) | Pre-emergence action against AMARE in % ([20]; 80 g/ha) | Pre-emergence action against AMARE in % ([20]; 320 g/ha)
